Measured values reported in BindingDB's records for doi:10.1021/jm00008a007 (1995).

Each compound was assayed against Histamine H1 receptor (Cavia porcellus, UniProt P31389) (assay: H1-Histamine receptor agonism on Guinea pig aorta was evaluated (SEM 0.03-0.18)).
Chain of Histamine H1 receptor (P31389 whole entry): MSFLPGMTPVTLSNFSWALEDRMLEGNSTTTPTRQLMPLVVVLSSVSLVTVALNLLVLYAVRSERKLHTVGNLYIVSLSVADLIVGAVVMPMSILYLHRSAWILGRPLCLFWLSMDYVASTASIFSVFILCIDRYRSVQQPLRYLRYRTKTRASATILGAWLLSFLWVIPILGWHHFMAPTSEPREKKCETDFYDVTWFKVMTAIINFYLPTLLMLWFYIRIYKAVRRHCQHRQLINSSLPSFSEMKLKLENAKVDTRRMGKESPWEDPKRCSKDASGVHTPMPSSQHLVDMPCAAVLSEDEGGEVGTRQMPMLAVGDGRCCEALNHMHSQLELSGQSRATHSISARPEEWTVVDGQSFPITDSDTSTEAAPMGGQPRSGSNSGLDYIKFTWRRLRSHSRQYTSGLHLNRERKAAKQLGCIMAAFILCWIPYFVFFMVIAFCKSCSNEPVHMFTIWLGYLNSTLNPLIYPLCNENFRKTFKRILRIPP

Compound | EC50
NCCc1c[nH]c(-c2csc(Br)c2)n1 | 11.4 µM
NCCc1nccs1 [2-(2-aminoethyl)thiazole] | 6.76 µM
NCCc1c[nH]c(Cc2cccc(Cl)c2)n1 | 288 µM
NCCc1c[nH]c(Cc2ccsc2)n1 | 128 µM
NCCc1c[nH]c(Cc2ccccc2Cl)n1 | 575 µM
NCCc1c[nH]c(Cc2cccs2)n1 | 147 µM
NCCc1c[nH]c(-c2ccc[nH]2)n1 | 10.2 µM

Now from value to compound:

EC50 | Compound
2.57 µM | NCCc1c[nH]c(-c2cccc(I)c2)n1
6.3 µM | NCCc1c[nH]c(-c2ccccc2)n1
9.99 µM | NCCc1c[nH]c(-c2cccs2)n1
5.37 µM | NCCc1c[nH]c(-c2ccco2)n1
6.16 µM | NCCc1c[nH]c(-c2ccsc2)n1
1.28 µM | NCCc1cnc(-c2cccc(C(F)(F)F)c2)[nH]1
